Test results: patent publication US20050234119A1, “Antiparasitical agents and methods for treating, preventing and controlling external parasites in animals” (priority 2004, published 2005)

Tests used:
[1] = Concentration in blood plasma of dogs after oral solution of the thioamide derivative of fipronil; type: in vivo
Procedure: An oral formulation (solution) comprising 100 mg/ml of thioamide derivatives of fipronil dissolved in 60:40 propylene glycol: glycerol formal was administered to dogs and the concentration of fipronil in blood plasma measured at 6 hours, day 1, day 2, and day 7 and is presented below

[2] = In vitro degradation studies of the thioamide derivative of fipronil in CH3CN/H2O under degradation agents; type: physicochemical
Procedure: A solution containing thioamide derivative of fipronil in a solution of CH3CN/H2O (50:50 v/v) and the solution was subjected to the following degradation agents: 0.5 N HCl; 0.5 N NaOH; 5% H2O2; UV light; fluorescent light and heat (65° C.).

[3] = Concentration in the fur of a dog after topical spot-on solution of the thioamide; type: in vivo; conditions: 0.1 ml/kg
Procedure: A topical spot-on solution of the thioamide solution containing 100 mg/ml of thioamide and diethylene glycol monoethyl ether was applied to the fur of a dog at the dose rate of 0.1 ml/kg of body weight. The concentration of fipronil in the fur was measured on day 2 and day 7.

NC(=S)c1nn(-c2c(Cl)cc(C(F)(F)F)cc2Cl)c(N)c1[S+]([O-])C(F)(F)F (stereo not shown) [thioamide derivative of fipronil]
concentration in blood plasma ([1]; Pre-treatment, oral solution 100 mg/ml thioamide derivative in 60:40 propylene glycol:glycerol formal): 0.0 µg/g
concentration at 6 h ([1]; dog, plasma, Day 0.25 (6 hours), oral solution 100 mg/ml thioamide derivative): 262000 ng/g
concentration at 1 day ([1]; dog, plasma, Day 1, oral solution 100 mg/ml thioamide derivative): 162000 ng/g
concentration at 2 day ([1]; dog, plasma, Day 2, oral solution 100 mg/ml thioamide derivative): 129000 ng/g
concentration at 7 day ([1]; dog, plasma, Day 7, oral solution 100 mg/ml thioamide derivative): 54600 ng/g
in-vivo degradation into fipronil ([1]; oral solution): degrades into fipronil in-vivo in amounts that are sufficient for efficacy
stability in acid ([2]; 0.5 N HCl): Thioamide derivative stable in acid with only
amounts of fipronil formed ([2]; 0.5 N HCl, 4 days): negligible
thioamide derivative degraded ([2]; 0.5 N HCl, in 4 days, solution of CH3CN/H2O (50:50 v/v)): 2.7%
fipronil formed ([2]; 0.5 N NaOH, 1 hour): hour, but no fipronil was formed
thioamide derivative degraded ([2]; 0.5 N NaOH, in 1 hour, CH3CN/H2O (50:50 v/v)): 95% if the thioamide derivative degraded in 1
fipronil formed ([2]; 5% H2O2, 1.5 hours): 1.5 hours but no fipronil was formed; fipronil
fipronil sulfone formed ([2]; 5% H2O2, 1.5 hours): sulfone was formed.
thioamide derivative degraded ([2]; 5% H2O2, in 1.5 hours, CH3CN/H2O (50:50 v/v)): 100% of the thioamide derivation degraded in
degraded to fipronil ([2]; Fluorescent light, in 4 days, CH3CN/H2O (50:50 v/v)): 23% degraded to fipronil in 4 days.
degraded to fipronil ([2]; Heat (65° C.), in 4 days, CH3CN/H2O (50:50 v/v)): 20% of the thioamide derivation degraded to
thioamide derivative degraded ([2]; UV light, in 1 hour, CH3CN/H2O (50:50 v/v)): 24% of the thioamide derivation degraded in 1
concentration at 2 day ([3]; Day 2, topical spot-on 100 mg/ml thioamide in diethylene glycol monoethyl ether): 363000 ng/g
concentration at 7 day ([3]; Day 7, topical spot-on 100 mg/ml thioamide in diethylene glycol monoethyl ether): 59300 ng/g
